ChEMBL document CHEMBL5370521, “New miconazole-based azoles derived from eugenol show activity against Candida spp. and Cryptococcus gattii by inhibiting the fungal ergosterol biosynthesis” (Eur J Med Chem, 2023)
In brackets after ≈: the same amount, converted by molar mass. Activity calls are given as the source filed them. The calls are words filed in the database; no cut-off is given here.

Key:
Candida tropicalis [1] = test: Antifungal activity against Candida tropicalis ATCC 750 assessed as inhibition of fungal growth at highest concentration incubated for 24 to 48 hrs by CLSI protocol based broth microdilution method; assay type: functional, organism-based; conditions: time 24-48 hrs
[2] = Cytotoxicity against H9c2 cells assessed as inhibition of cell proliferation incubated for 72 hrs by resazurin dye based microplate reader analysis; assay type: toxicity; conditions: rat
Pichia kudriavzevii [3] = test: Antifungal activity against Candida krusei ATCC 20298 assessed as inhibition of fungal growth at highest concentration incubated for 24 to 48 hrs by CLSI protocol based broth microdilution method; assay type: functional, organism-based; conditions: time 24-48 hrs
Candida albicans [4] = test: Antifungal activity against Candida albicans SC5314 assessed as inhibition of fungal growth at highest concentration incubated for 24 to 48 hrs by CLSI protocol based broth microdilution method; assay type: functional, organism-based; conditions: time 24-48 hrs
Candida parapsilosis [5] = test: Antifungal activity against Candida parapsilosis ATCC 22019 assessed as inhibition of fungal growth at highest concentration incubated for 24 to 48 hrs by CLSI protocol based broth microdilution method; assay type: functional, organism-based; conditions: time 24-48 hrs
[Candida] auris [6] = Antifungal activity against Candida auris COLO 01 A assessed as inhibition of fungal growth at highest concentration incubated for 24 to 48 hrs by CLSI protocol based broth microdilution method; assay type: functional, organism-based; conditions: Candidozyma auris, time 24-48 hrs
Nakaseomyces glabratus [7] = test: Antifungal activity against Candida glabrata ATCC 2001 assessed as inhibition of fungal growth at highest concentration incubated for 24 to 48 hrs by CLSI protocol based broth microdilution method; assay type: functional, organism-based; conditions: time 24-48 hrs
Cryptococcus gattii VGI = test: Antifungal activity against Cryptococcus gattii ATCC 24065 assessed as inhibition of fungal growth at highest concentration incubated for 24 to 48 hrs by CLSI protocol based broth microdilution method; assay type: functional; conditions: time 24-48 hrs
Nakaseomyces glabratus [8] = test: Antifungal activity against Candida glabrata ATCC 2001 assessed as inhibition of fungal growth incubated for 24 to 48 hrs by CLSI protocol based broth microdilution method; assay type: functional; conditions: time 24-48 hrs
[9] = Selectivity index, ratio of CC50 for cytotoxicity against […] H9c2 cells to MIC for antifungal activity against Candida glabrata ATCC 2001; assay type: toxicity, cell-based; conditions: rat, read-out: Selectivity Index
[10] = Selectivity index, ratio of CC50 for cytotoxicity against […] H9c2 cells to MIC for antifungal activity against Cryptococcus gattii ATCC 24065; assay type: toxicity, cell-based; conditions: rat, read-out: Selectivity Index
[11] = Antifungal activity against Cryptococcus gattii ATCC 24065 assessed as inhibition of fungal growth incubated for 24 to 48 hrs by CLSI protocol based broth microdilution method; assay type: functional, Cryptococcus gattii VGI; conditions: time 24-48 hrs
Candida parapsilosis [12] = test: Antifungal activity against Candida parapsilosis ATCC 22019 assessed as inhibition of fungal growth incubated for 24 to 48 hrs by CLSI protocol based broth microdilution method; assay type: functional; conditions: Lodderomyces parapsilosis, time 24-48 hrs
Candida tropicalis [13] = test: Antifungal activity against Candida tropicalis ATCC 750 assessed as inhibition of fungal growth incubated for 24 to 48 hrs by CLSI protocol based broth microdilution method; assay type: functional; conditions: time 24-48 hrs
[Candida] auris [14] = Antifungal activity against Candida auris COLO 01 A assessed as inhibition of fungal growth incubated for 24 to 48 hrs by CLSI protocol based broth microdilution method; assay type: functional; conditions: Candidozyma auris, time 24-48 hrs
Candida albicans [15] = test: Antifungal activity against Candida albicans SC5314 assessed as inhibition of fungal growth incubated for 24 to 48 hrs by CLSI protocol based broth microdilution method; assay type: functional; conditions: time 24-48 hrs
Pichia kudriavzevii [16] = test: Antifungal activity against Candida krusei ATCC 20298 assessed as inhibition of fungal growth incubated for 24 to 48 hrs by CLSI protocol based broth microdilution method; assay type: functional; conditions: time 24-48 hrs
[17] = Selectivity index, ratio of CC50 for cytotoxicity against […] H9c2 cells to MIC for antifungal activity against Candida parapsilosis ATCC 22019; assay type: toxicity, cell-based; conditions: read-out: Selectivity Index
[18] = Selectivity index, ratio of CC50 for cytotoxicity against […] H9c2 cells to MIC for antifungal activity against Candida tropicalis ATCC 750; assay type: toxicity, cell-based; conditions: read-out: Selectivity Index
Candida albicans [19] = test: Potency index, ratio of miconazole MIC to test compound MIC for antifungal activity against Candida albicans SC5314 assessed as inhibition of fungal growth incubated for 24 to 48 hrs by CLSI protocol based broth microdilution method; assay type: functional; conditions: time 24-48 hrs
[20] = biological target: T1, Lanosterol 14-alpha demethylase (Candida albicans (strain SC5314 / ATCC MYA-2876) (Yeast), UniProt P10613); test: Inhibition of CYP51 in Candida albicans SC5314 assessed as reduction in ergosterol level at 3 fold MIC incubated overnight by spectrophotometric analysis
[21] = Selectivity index, ratio of CC50 for cytotoxicity against […] H9c2 cells to MIC for antifungal activity against Candida albicans SC5314; assay type: toxicity, cell-based; conditions: read-out: Selectivity Index
[22] = biological target: T1, Lanosterol 14-alpha demethylase; test: Inhibition of CYP51 in Candida albicans SC5314 assessed as reduction in ergosterol level at 2 fold MIC incubated overnight by spectrophotometric analysis
[Candida] auris [23] = Potency index, ratio of miconazole MIC to test compound MIC for antifungal activity against Candida auris COLO 01 A assessed as inhibition of fungal growth incubated for 24 to 48 hrs by CLSI protocol based broth microdilution method; assay type: functional, Candidozyma auris; conditions: time 24-48 hrs
[Candida] auris [24] = Potency index, ratio of fluconazole MIC to test compound MIC for antifungal activity against Candida auris COLO 01 A assessed as inhibition of fungal growth incubated for 24 to 48 hrs by CLSI protocol based broth microdilution method; assay type: functional, Candidozyma auris; conditions: time 24-48 hrs
[25] = Selectivity index, ratio of CC50 for cytotoxicity against […] H9c2 cells to MIC for antifungal activity against Candida auris COLO 01 A; assay type: toxicity, cell-based; conditions: read-out: Selectivity Index
[26] = Selectivity index, ratio of CC50 for cytotoxicity against […] H9c2 cells to MIC for antifungal activity against Candida krusei ATCC 20298; assay type: toxicity, cell-based; conditions: read-out: Selectivity Index

T1 sequence (P10613 whole entry): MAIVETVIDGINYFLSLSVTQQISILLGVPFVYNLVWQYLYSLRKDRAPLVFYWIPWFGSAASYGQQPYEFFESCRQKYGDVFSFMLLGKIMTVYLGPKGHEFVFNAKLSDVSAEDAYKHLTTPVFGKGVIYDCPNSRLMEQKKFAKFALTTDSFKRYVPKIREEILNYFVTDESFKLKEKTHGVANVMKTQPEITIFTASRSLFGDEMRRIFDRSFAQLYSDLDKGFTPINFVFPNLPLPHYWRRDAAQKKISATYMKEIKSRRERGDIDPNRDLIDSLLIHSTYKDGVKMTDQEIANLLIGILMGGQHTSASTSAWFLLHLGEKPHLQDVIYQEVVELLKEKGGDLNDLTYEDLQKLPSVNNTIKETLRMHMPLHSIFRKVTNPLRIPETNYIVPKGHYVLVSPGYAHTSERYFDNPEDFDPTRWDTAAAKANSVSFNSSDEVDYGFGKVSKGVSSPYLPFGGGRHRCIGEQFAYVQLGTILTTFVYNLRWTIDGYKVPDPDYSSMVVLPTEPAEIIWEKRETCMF

SMILES	Activity (Candida tropicalis [1])	CC50 at 72 h [2] [µM]	Activity (Pichia kudriavzevii [3])	Activity (Candida albicans [4])	Activity (Candida parapsilosis [5])	Activity ([Candida] auris [6])	Activity (Nakaseomyces glabratus [7])	Activity (Cryptococcus gattii VGI)	MIC (Nakaseomyces glabratus [8]) [µM]	MIC [11] [µM]	further results
C=CCc1ccc(OCC(Cn2cncn2)OC(=O)c2ccc(Cl)cc2)c(OC)c1 (configuration not stated)	inactive	96.2	inactive	inactive	inactive	inactive	inactive	inactive			
CCCc1ccc(OCC(O)Cn2cncn2)c(OC)c1 (configuration not stated)	inactive	553	inactive	inactive	inactive	inactive	inactive	inactive			
C=CCc1ccc(OCC(O)Cn2ccnc2)c(OC)c1 (configuration not stated)	inactive	644	inactive	inactive	inactive	inactive	inactive	inactive			
C=CCc1ccc(OCC(Cn2ccnc2)OCc2ccc(Cl)cc2)c(OC)c1 (configuration not stated)	inactive	33.6	inactive	inactive	inactive	inactive			36.8 (≈ 15.2 µg/mL)	18.9 (≈ 7.8 µg/mL)	selectivity ratio [9]: 0.9; selectivity ratio [10]: 1.8
Clc1ccc(COC(Cn2ccnc2)c2ccc(Cl)cc2Cl)c(Cl)c1 (configuration not stated) [MICONAZOLE]									1.2 (≈ 0.499 µg/mL)	9.4 (≈ 3.91 µg/mL)	MIC (Candida parapsilosis [12]): 7.8 µM (≈ 3.25 µg/mL); MIC (Candida tropicalis [13]): 31.2 µM (≈ 13 µg/mL); MIC ([Candida] auris [14]): 74.9 µM (≈ 31.2 µg/mL); MIC (Candida albicans [15]): 150 µM (≈ 62.5 µg/mL); MIC (Pichia kudriavzevii [16]): 18.7 µM (≈ 7.78 µg/mL)
C=CCc1ccc(OCC(Cn2ccnc2)OC(=O)c2ccc(Cl)cc2)c(OC)c1 (configuration not stated)		129	inactive			inactive			36.5 (≈ 15.6 µg/mL)	73.2 (≈ 31.2 µg/mL)	selectivity ratio [17]: 1.8; MIC (Candida parapsilosis [12]): 73.2 µM (≈ 31.2 µg/mL); MIC (Candida tropicalis [13]): 73.2 µM (≈ 31.2 µg/mL); selectivity ratio [18]: 1.8; Ratio (Candida albicans [19]): 32; selectivity ratio [9]: 3.5; MIC (Candida albicans [15]): 4.6 µM (≈ 1.96 µg/mL); inhibition (INH) [20]: Active; selectivity ratio [21]: 28.2; selectivity ratio [10]: 1.8
CCCc1ccc(OCC(Cn2cncn2)OCc2ccc(Cl)cc2)c(OC)c1 (configuration not stated)	inactive	40.1	inactive	inactive	inactive	inactive	inactive	inactive			
OC(Cn1cncn1)(Cn1cncn1)c1ccc(F)cc1F [FLUCONAZOLE]									13.1 (≈ 4.01 µg/mL)	13.1 (≈ 4.01 µg/mL)	MIC (Candida parapsilosis [12]): 3.3 µM (≈ 1.01 µg/mL); MIC (Candida tropicalis [13]): 0.8 µM (≈ 0.245 µg/mL); inhibition (INH) [22]: Active; MIC ([Candida] auris [14]): 209 µM (≈ 64 µg/mL); MIC (Candida albicans [15]): 1.6 µM (≈ 0.49 µg/mL); inhibition (INH) [20]: Active; MIC (Pichia kudriavzevii [16]): 104 µM (≈ 32 µg/mL)
CCCc1ccc(OCC(Cn2ccnc2)OC(=O)c2ccc(Cl)cc2)c(OC)c1 (configuration not stated)	inactive	35.5	inactive	inactive	inactive				36.4 (≈ 15.6 µg/mL)	72.7 (≈ 31.2 µg/mL)	Ratio ([Candida] auris [23]): 2; selectivity ratio [9]: 0.9; Ratio ([Candida] auris [24]): >5; MIC ([Candida] auris [14]): 36.4 µM (≈ 15.6 µg/mL); selectivity ratio [25]: 0.9; selectivity ratio [10]: 0.5
CCCc1ccc(OCC(Cn2cncn2)OC(=O)c2ccc(Cl)cc2)c(OC)c1 (configuration not stated)	inactive	35.4	inactive	inactive	inactive	inactive	inactive	inactive			
C=CCc1ccc(OCC(O)Cn2cncn2)c(OC)c1 (configuration not stated)	inactive	541	inactive	inactive	inactive	inactive	inactive	inactive			
C=CCc1ccc(OCC(Cn2cncn2)OCc2ccc(Cl)cc2)c(OC)c1 (configuration not stated)	inactive	52.9	inactive	inactive	inactive	inactive	inactive	inactive			
CCCc1ccc(OCC(O)Cn2ccnc2)c(OC)c1 (configuration not stated)	inactive	453	inactive	inactive	inactive	inactive	inactive	inactive			
CCCc1ccc(OCC(Cn2ccnc2)OCc2ccc(Cl)cc2)c(OC)c1 (configuration not stated)		44.2							37.6 (≈ 15.6 µg/mL)	18.8 (≈ 7.8 µg/mL)	selectivity ratio [17]: 0.6; MIC (Candida parapsilosis [12]): 75.3 µM (≈ 31.2 µg/mL); MIC (Candida tropicalis [13]): 75.3 µM (≈ 31.2 µg/mL); selectivity ratio [18]: 0.6; Ratio (Candida albicans [19]): 8; selectivity ratio [9]: 1.2; Ratio ([Candida] auris [24]): >2; inhibition (INH) [22]: Active; MIC ([Candida] auris [14]): 75.3 µM (≈ 31.2 µg/mL); MIC (Candida albicans [15]): 18.8 µM (≈ 7.8 µg/mL); selectivity ratio [25]: 0.6; inhibition (INH) [20]: Active; selectivity ratio [21]: 2.3; selectivity ratio [26]: 1.2; selectivity ratio [10]: 2.4; MIC (Pichia kudriavzevii [16]): 37.6 µM (≈ 15.6 µg/mL)
